Results published in ChEMBL document CHEMBL3045195, “Comparison of the activity of non-steroidal ecdysone agonists between dipteran and lepidopteran insects, using cell-based EcR reporter assays” (Pest Manag Sci, 2010).
Calls of active or inactive are those of the source. No cut-off for these calls is given here.

Experiments:
Ecdysone receptor [1] = target: T1, Ecdysone receptor (Drosophila melanogaster, UniProt P20153+P34021); experiment: (§1) Agonist activity at ecdysone receptor in Drosophila melanogaster Kc cells after 24 hr by luciferase reporter gene assay
T1 sequence (P34021 whole entry): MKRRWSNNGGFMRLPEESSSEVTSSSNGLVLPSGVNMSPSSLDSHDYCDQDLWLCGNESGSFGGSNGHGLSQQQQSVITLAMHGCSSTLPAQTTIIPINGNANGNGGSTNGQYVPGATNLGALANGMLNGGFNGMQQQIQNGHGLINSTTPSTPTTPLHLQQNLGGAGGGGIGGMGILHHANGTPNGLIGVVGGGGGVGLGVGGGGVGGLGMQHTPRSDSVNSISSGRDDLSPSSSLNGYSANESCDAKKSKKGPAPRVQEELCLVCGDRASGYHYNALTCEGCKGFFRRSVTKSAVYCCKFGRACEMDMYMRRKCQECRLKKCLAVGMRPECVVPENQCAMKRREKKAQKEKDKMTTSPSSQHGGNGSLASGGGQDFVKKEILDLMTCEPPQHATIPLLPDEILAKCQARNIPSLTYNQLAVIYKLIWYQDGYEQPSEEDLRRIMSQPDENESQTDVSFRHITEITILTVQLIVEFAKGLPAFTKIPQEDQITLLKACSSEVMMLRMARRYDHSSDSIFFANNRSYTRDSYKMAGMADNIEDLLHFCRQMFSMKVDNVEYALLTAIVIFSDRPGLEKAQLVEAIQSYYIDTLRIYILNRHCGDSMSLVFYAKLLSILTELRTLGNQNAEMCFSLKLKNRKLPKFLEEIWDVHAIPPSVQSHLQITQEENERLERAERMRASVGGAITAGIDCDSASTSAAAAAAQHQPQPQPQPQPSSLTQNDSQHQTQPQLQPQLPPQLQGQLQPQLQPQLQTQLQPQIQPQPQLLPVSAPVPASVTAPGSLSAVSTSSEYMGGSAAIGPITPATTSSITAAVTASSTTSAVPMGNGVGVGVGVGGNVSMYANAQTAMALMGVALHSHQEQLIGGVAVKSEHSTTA
T1 sequence (P20153 whole entry): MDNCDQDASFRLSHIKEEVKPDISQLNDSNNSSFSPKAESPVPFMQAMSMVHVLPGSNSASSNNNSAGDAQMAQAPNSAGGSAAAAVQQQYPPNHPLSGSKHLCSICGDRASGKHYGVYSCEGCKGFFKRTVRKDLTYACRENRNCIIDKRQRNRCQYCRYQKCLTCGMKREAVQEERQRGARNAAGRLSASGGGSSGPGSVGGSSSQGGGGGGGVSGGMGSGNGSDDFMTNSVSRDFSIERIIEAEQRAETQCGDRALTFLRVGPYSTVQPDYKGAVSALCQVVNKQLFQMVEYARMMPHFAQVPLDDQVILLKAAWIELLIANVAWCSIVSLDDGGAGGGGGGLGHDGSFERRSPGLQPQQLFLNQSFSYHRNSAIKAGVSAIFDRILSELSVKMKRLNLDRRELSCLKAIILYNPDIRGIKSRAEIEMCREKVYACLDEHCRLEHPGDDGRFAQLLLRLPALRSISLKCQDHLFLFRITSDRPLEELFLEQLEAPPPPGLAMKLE

[2] = target: T2, Ecdysone receptor (Drosophila melanogaster) (UniProt P34021+P20153); experiment: Agonist activity at ecdysone receptor in Drosophila melanogaster S2 cells at 100 uM after 24 hr by luciferase reporter gene assay relative to 20-hydroxyecdysone; type: cell-based
[3] = target: T2, Ecdysone receptor (Drosophila melanogaster); experiment: Agonist activity at ecdysone receptor in Drosophila melanogaster Kc cells at 10 uM after 24 hr by luciferase reporter gene assay relative to 20-hydroxyecdysone
Ecdysone receptor [4] = target: T1, Ecdysone receptor; experiment: Agonist activity at ecdysone receptor in Drosophila melanogaster S2 cells after 24 hr by luciferase reporter gene assay; type: cell-based
Ecdysone receptor [5] = target: T3, Ecdysone receptor (Bombyx mori, UniProt P49881); experiment: (§2) Agonist activity at ecdysone receptor in Bombyx mori Bm5 cells after 24 hr by luciferase reporter gene assay; type: cell-based
T3 sequence (P49881 whole entry): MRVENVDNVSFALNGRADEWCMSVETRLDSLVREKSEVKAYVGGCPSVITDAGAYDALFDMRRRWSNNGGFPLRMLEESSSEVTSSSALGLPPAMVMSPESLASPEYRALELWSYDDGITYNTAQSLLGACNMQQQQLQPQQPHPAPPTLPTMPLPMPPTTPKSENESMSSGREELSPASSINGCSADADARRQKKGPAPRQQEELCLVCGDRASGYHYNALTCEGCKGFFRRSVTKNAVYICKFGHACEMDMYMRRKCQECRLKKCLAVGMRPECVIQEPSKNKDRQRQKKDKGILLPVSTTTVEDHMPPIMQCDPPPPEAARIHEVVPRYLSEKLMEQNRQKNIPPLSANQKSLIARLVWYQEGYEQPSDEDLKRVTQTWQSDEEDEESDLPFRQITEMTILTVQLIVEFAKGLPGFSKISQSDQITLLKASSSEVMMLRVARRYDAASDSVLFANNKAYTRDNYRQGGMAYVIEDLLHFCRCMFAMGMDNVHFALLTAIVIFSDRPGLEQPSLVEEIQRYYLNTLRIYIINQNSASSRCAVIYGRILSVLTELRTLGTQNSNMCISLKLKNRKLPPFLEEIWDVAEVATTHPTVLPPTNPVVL

[6] = target: T2, Ecdysone receptor (Drosophila melanogaster); experiment: Agonist activity at ecdysone receptor in Drosophila melanogaster S2 cells at 5 uM after 24 hr by luciferase reporter gene assay relative to 20-hydroxyecdysone; type: cell-based
[7] = target: T2, Ecdysone receptor (Drosophila melanogaster); experiment: Agonist activity at ecdysone receptor in Drosophila melanogaster S2 cells after 24 hr by luciferase reporter gene assay in presence of ouabain; type: cell-based
[8] = target: T2, Ecdysone receptor (Drosophila melanogaster); experiment: Agonist activity at ecdysone receptor in Drosophila melanogaster S2 cells treated with ouabain for 24 hr prior to compound addition measured after 24 hr by luciferase reporter gene assay; type: cell-based
[9] = Cytotoxicity against Drosophila melanogaster S2 cells at 10 to 100 uM after 24 hr by CellTiter assay; type: cell-based; conditions: s2, 24 h
[10] = target: T2, Ecdysone receptor (Drosophila melanogaster); experiment: as §1
[11] = target: T2, Ecdysone receptor (Drosophila melanogaster); experiment: Agonist activity at ecdysone receptor in Drosophila melanogaster Kc cells at 100 uM after 24 hr by luciferase reporter gene assay relative to 20-hydroxyecdysone
[12] = target: T2, Ecdysone receptor (Drosophila melanogaster); experiment: Agonist activity at ecdysone receptor in Drosophila melanogaster S2 cells at 10 uM after 24 hr by luciferase reporter gene assay relative to 20-hydroxyecdysone; type: cell-based
Ecdysone receptor [13] = target: T4, Ecdysone receptor (Aedes aegypti, UniProt P49880+Q9GSG8); experiment: Agonist activity at Aedes aegypti ecdysone receptor expressed in mammalian cells by reporter gene assay; type: cell-based
T4 sequence (P49880 whole entry): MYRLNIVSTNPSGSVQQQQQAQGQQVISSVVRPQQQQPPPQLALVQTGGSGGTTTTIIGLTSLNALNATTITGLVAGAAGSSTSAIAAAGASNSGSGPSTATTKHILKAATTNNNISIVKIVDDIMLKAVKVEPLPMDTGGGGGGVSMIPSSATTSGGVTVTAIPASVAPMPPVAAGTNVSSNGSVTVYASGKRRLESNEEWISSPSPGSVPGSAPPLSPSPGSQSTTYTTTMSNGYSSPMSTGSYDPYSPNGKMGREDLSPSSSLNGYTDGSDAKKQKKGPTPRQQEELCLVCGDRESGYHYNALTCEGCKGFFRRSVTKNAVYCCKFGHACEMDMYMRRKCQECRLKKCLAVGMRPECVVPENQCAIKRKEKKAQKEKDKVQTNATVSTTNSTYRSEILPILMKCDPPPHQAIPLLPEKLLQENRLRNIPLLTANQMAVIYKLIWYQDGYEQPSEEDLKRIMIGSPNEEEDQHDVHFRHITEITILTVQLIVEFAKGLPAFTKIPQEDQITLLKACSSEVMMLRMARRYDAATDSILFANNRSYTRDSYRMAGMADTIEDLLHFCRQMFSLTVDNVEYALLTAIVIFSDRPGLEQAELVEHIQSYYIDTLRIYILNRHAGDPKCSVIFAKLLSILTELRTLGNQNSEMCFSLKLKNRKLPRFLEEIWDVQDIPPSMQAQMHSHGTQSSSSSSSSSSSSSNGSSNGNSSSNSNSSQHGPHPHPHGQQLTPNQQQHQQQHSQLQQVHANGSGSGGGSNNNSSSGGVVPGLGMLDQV
T4 sequence (Q9GSG8 whole entry): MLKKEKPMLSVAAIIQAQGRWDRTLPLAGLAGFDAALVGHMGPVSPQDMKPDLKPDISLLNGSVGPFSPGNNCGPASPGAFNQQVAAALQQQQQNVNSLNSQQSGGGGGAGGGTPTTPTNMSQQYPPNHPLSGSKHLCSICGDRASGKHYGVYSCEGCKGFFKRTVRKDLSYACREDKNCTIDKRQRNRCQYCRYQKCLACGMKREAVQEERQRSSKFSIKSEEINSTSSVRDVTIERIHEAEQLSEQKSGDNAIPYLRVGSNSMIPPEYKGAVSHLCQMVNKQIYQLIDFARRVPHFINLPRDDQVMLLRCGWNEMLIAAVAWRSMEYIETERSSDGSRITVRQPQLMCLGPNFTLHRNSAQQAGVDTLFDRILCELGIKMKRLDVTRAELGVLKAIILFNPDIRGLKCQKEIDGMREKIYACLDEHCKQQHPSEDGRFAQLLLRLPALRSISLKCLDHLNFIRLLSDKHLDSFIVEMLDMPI

[14] = target: T5, Ecdysone receptor (Bombyx mori) (UniProt P49881); experiment: as §2; type: cell-based
T5 sequence (whole entry): T3 sequence (P49881 whole entry)

[15] = target: Ecdysone receptor (Aedes aegypti) (UniProt P49880+Q9GSG8); experiment: Agonist activity at Aedes aegypti ecdysone receptor expressed in mammalian cells by reporter gene assay relative to control; type: cell-based
[16] = target: T2, Ecdysone receptor (Drosophila melanogaster); experiment: Agonist activity at ecdysone receptor in Drosophila melanogaster S2 cells at 1.33 uM after 24 hr by luciferase reporter gene assay relative to 20-hydroxyecdysone; type: cell-based
[17] = target: T2, Ecdysone receptor (Drosophila melanogaster); experiment: Agonist activity at ecdysone receptor in Drosophila melanogaster S2 cells at 50 uM after 24 hr by luciferase reporter gene assay relative to 20-hydroxyecdysone; type: cell-based

With CC(=O)c1ccc(C(=O)NN(C(=O)c2ccccc2Cl)C(C)(C)C)cc1 the EC50 (Ecdysone receptor [1]) was over 100 µM, the Efficacy [2] was 7% and the Efficacy [3] was 3%.
Compound CC(C)(C)N(NC(=O)c1ccc(I)cc1)C(=O)c1ccccc1Cl has an EC50 (Ecdysone receptor [4]) of 7.08 µM, an EC50 (Ecdysone receptor [5]) of 0.00759 µM and an Efficacy [6] of 53%.
For COc1cccc(C(=O)NN(C(=O)c2cc(C)cc(C)c2)C(C)(C)C)c1C [METHOXYFENOZIDE], the Activity [7] was “Active”, the Activity [8] was “Active” and the EC50 (Ecdysone receptor [4]) was 16.6 µM. For the same compound, the EC50 (Ecdysone receptor [5]) was 0.00603 µM, the Activity [9] was “Non-toxic” and the Efficacy [2] was 66%.
In the case of Cc1ccc(C(=O)NN(C(=O)c2ccccc2Cl)C(C)(C)C)c(C)c1, the pEC50 [10] is reported as “inactive”, the Efficacy [11] is reported as 29% and the EC50 (Ecdysone receptor [4]) is reported as 129 µM. It also gave an EC50 (Ecdysone receptor [5]) of 0.162 µM and an Efficacy [2] of 43%.
Cc1ccc(NC2CC(C)N(C(=O)c3ccc(C)cc3)c3ccc(C)cc32)cc1 (centres undefined) showed an Efficacy [12] of 11%, an EC50 (Ecdysone receptor [13]) of 5.01 µM and an EC50 (Ecdysone receptor [4]) of over 10 µM. The pEC50 [14] was “inactive” and the Efficacy [15] was 26%.
Work on CC(C)(C)N(NC(=O)c1c(F)cccc1F)C(=O)c1ccccc1Cl yielded an EC50 (Ecdysone receptor [1]) of over 100 µM, an Efficacy [11] of 35% and an Efficacy [2] of 23%.
Cc1cc(C)cc(C(=O)C2(NC(=O)c3ccc4c(c3C)CCCO4)CCCCC2)c1 showed an Efficacy [16] of 37% and an EC50 (Ecdysone receptor [4]) of over 1.32 µM.
For Cc1ccc(NC2CC(C)N(C(=O)c3ccc(Cl)cc3)c3ccc(C)cc32)cc1 (centres undefined), the Efficacy [12] was 9%, the EC50 (Ecdysone receptor [13]) was 2.14 µM and the EC50 (Ecdysone receptor [4]) was over 10 µM. The pEC50 [14] was “inactive” and the Efficacy [15] was 39%.
Compound CC(C)(C)N(NC(=O)c1ccc(Br)cc1)C(=O)c1ccccc1Cl has an EC50 (Ecdysone receptor [1]) of 6.92 µM, an EC50 (Ecdysone receptor [4]) of 2.82 µM and an EC50 (Ecdysone receptor [5]) of 0.0339 µM. For the same compound, the Efficacy [6] was 68% and the Efficacy [3] was 56%.
For CCOc1ccccc1C(=O)N(NC(=O)c1ccc(CC)cc1)C(C)(C)C, the Efficacy [17] was 2% and the EC50 (Ecdysone receptor [4]) was over 50.1 µM.
